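Following 48 hours of exposure in 96-well plates, responses at five concentrations were used to interpolate endpoints linearly. GI50 marks 50% less growth.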 Activity calls are given as the source filed them. No stated cut-off is given here; in the data, active = GI50 up to about 1.1 µM and inactive = higher.

This note sets out measurements from ChEMBL document CHEMBL1201862, “PubChem BioAssay data set” (2004).

Some test systems named below: K562; EKVX; TK-10; HL-60; RPMI-8226; CCRF-CEM; SK-MEL-2; OVCAR-5; SF-539; M14; SK-OV-3; UACC-62; HOP-62; RXF 393; SW-620; NCI-H226; SR.
What all share (assay): growth of human tumour cells (NCI), 48 h

As to `CC1(O)CC2C(CC1SCCO)C2(C)C` (stereo not given), the GI50 with K562, in the assay on EKVX, in the assay on TK-10, in the assay on HL-60, with RPMI-8226 and in the assay on CCRF-CEM was > 100 µM (inactive) each time. Besides, the GI50 in the assay on SK-MEL-2, in the assay with OVCAR-5, in the assay on SF-539, with M14 and in the assay with SK-OV-3 was > 100 µM (inactive) throughout.
As for `N/N=C1/C(=O)N(c2ccc(Cl)cc2)C(=O)C(=O)C1c1nc2ccccc2s1` (stereo not given), the GI50 with K562 was 60.3 µM (inactive); in the assay on EKVX, > 100 µM (inactive); in the assay on TK-10 it was > 100 µM (inactive); with HL-60, > 100 µM (inactive); in the assay on RPMI-8226 it was > 100 µM (inactive); in the assay with UACC-62, > 100 µM (inactive). The GI50 in the assay on CCRF-CEM is 74.6 µM (inactive); in the assay on HOP-62, > 100 µM (inactive); in the assay on RXF 393, > 100 µM (inactive); with SW-620, > 100 µM (inactive); with SK-MEL-2, > 100 µM (inactive); in the assay with OVCAR-5 it was > 100 µM (inactive). Besides, the GI50 with SF-539, in the assay on M14 and in the assay on SK-OV-3 was > 100 µM (inactive) throughout.
Regarding `[O-][S+]1c2ccc(Cl)cc2CC(SSC2Cc3cc(Cl)ccc3[S+]([O-])c3ccccc32)c2ccccc21` (stereo not given), the GI50 in the assay with K562, in the assay on EKVX, with TK-10, with HL-60, in the assay on RPMI-8226 and in the assay on UACC-62 was > 100 µM (inactive) each time. Moreover, the GI50 in the assay with CCRF-CEM, in the assay on HOP-62, in the assay on RXF 393, in the assay with SW-620, with SK-MEL-2 and in the assay with NCI-H226 was > 100 µM (inactive) each time. Also, the GI50 with OVCAR-5, in the assay on SF-539, in the assay with M14 and with SK-OV-3 was > 100 µM (inactive) in each case.
Turning to `COC(=O)C1=C(C)N(NC(N)=O)C(C)(O)C12CCOC2=O` (stereo not given), the GI50 with K562 is > 100 µM (inactive); in the assay with EKVX, > 100 µM (inactive); in the assay with TK-10, > 100 µM (inactive); in the assay with HL-60, > 100 µM (inactive); in the assay with RPMI-8226, > 100 µM (inactive); in the assay on UACC-62, > 10 µM (inactive). Further, the GI50 with CCRF-CEM, with HOP-62, in the assay on SW-620, in the assay with SK-MEL-2, in the assay on NCI-H226 and in the assay with OVCAR-5 was > 100 µM (inactive) throughout. The GI50 in the assay with SF-539, with M14 and with SK-OV-3 was > 100 µM (inactive) throughout.
`Cn1cc(C2(C)CC(C)(C)c3c2n(C)c2ccccc32)c2ccccc21` (stereo not given): the GI50 in the assay with K562 was 83.8 µM (inactive); in the assay with EKVX, > 100 µM (inactive); in the assay on TK-10, > 100 µM (inactive); in the assay on RPMI-8226, 40.2 µM (inactive); with UACC-62, > 100 µM (inactive); in the assay with CCRF-CEM it was 92.7 µM (inactive). Moreover, the GI50 in the assay with HOP-62 was > 100 µM (inactive); in the assay on RXF 393, 32.5 µM (inactive); with SW-620, > 100 µM (inactive); in the assay on SK-MEL-2, > 100 µM (inactive); with NCI-H226, 90.2 µM (inactive); with SF-539, > 100 µM (inactive). The GI50 in the assay on M14 and in the assay on SK-OV-3 was > 100 µM (inactive) each time.
Regarding `COc1ccccc1NC(=O)C1=C(C)NC(C)=C(C(=O)Nc2ccccc2OC)C1c1ccccc1F`, the GI50 in the assay with K562 was 36.2 µM (inactive); in the assay with SR, 64.7 µM (inactive); in the assay on EKVX it was 50.2 µM (inactive); in the assay with TK-10, > 100 µM (inactive); in the assay with HL-60 it was 46.2 µM (inactive); in the assay with RPMI-8226, 62.1 µM (inactive). Besides, the GI50 with UACC-62 was 81.7 µM (inactive); in the assay with CCRF-CEM, 54.3 µM (inactive); in the assay on HOP-62 it was > 100 µM (inactive); in the assay with SW-620, > 100 µM (inactive); with SK-MEL-2 it was 55.8 µM (inactive); in the assay with NCI-H226, > 100 µM (inactive). Moreover, the GI50 is > 100 µM (inactive) in the assay on OVCAR-5, 30.5 µM (inactive) in the assay on SF-539, > 100 µM (inactive) with M14 and > 100 µM (inactive) in the assay on SK-OV-3.
For the compound `O=C(CN1CCCCC1)N1CCc2c([nH]c3ccccc23)C1c1cccnc1` (stereo not given), the GI50 in the assay with K562, in the assay on EKVX, in the assay on TK-10, in the assay with HL-60, in the assay on RPMI-8226 and in the assay with UACC-62 was > 100 µM (inactive) throughout. Moreover, the GI50 in the assay on CCRF-CEM is > 100 µM (inactive); in the assay with HOP-62, > 100 µM (inactive); in the assay on RXF 393 it was 40.5 µM (inactive); in the assay on SW-620, > 100 µM (inactive); in the assay with OVCAR-5 it was > 100 µM (inactive); in the assay on SF-539, > 100 µM (inactive). Besides, the GI50 in the assay with M14 and in the assay on SK-OV-3 was > 100 µM (inactive) throughout.
In the case of `Cn1nc(-c2ccccc2)c(C(=O)/C=C/c2ccc(Cl)cc2)c(N2CCCCC2)c1=O`, the GI50 was 2.04 µM (inactive) with K562; 3.85 µM (inactive) in the assay on EKVX; 3.72 µM (inactive) in the assay on TK-10; 1.82 µM (inactive) with HL-60; 2.05 µM (inactive) in the assay on RPMI-8226; 2.2 µM (inactive) in the assay on UACC-62. Besides, the GI50 with CCRF-CEM was 2.18 µM (inactive); in the assay on HOP-62, 2.37 µM (inactive); in the assay with RXF 393, 1.32 µM (inactive); with SW-620, 3.48 µM (inactive); with SF-539, 1.61 µM (inactive); in the assay on M14, 3.15 µM (inactive). Also, in the assay with SK-OV-3, the GI50 was 3.52 µM (inactive).
For the compound `C=CCCCCC1CCC2CCC(CCCCC=C)N12` (stereo not given), the GI50 was 12.1 µM (inactive) in the assay with K562; 14.2 µM (inactive) in the assay on SR; > 10 µM (inactive) with EKVX; 16.6 µM (inactive) in the assay on TK-10; 14.5 µM (inactive) with HL-60; 16.1 µM (inactive) in the assay with RPMI-8226. The GI50 was 15.7 µM (inactive) in the assay on UACC-62; 11.6 µM (inactive) in the assay with CCRF-CEM; 16 µM (inactive) in the assay with HOP-62; 15.1 µM (inactive) in the assay with SW-620; 10.7 µM (inactive) with SK-MEL-2; 18.2 µM (inactive) in the assay on NCI-H226. In addition, the GI50 in the assay with SF-539 was 16.9 µM (inactive); in the assay with M14, 15.4 µM (inactive).
Consider `CC(C)=CC1CCc2ccccc2N1S(=O)(=O)c1ccc(C)cc1` (stereo not given), for which the GI50 is 0.59 µM (active) with K562; 10.6 µM (inactive) in the assay with EKVX; 2.81 µM (inactive) with TK-10; 0.272 µM (active) in the assay on HL-60; 1.32 µM (inactive) in the assay with RPMI-8226; 0.982 µM (active) in the assay with UACC-62. The GI50 with CCRF-CEM was 0.373 µM (active); with HOP-62 it was 2.57 µM (inactive); in the assay with RXF 393, 1.24 µM (inactive); with SW-620, 0.726 µM (active); in the assay on SK-MEL-2, 1.79 µM (inactive); in the assay with NCI-H226, 1.77 µM (inactive). The GI50 is 14.8 µM (inactive) in the assay on OVCAR-5, 1.16 µM (inactive) with SF-539, 1.27 µM (inactive) with M14 and 1.7 µM (inactive) in the assay on SK-OV-3.
As for `Cc1ccc(/C=C2\CCCC\C2=N\O)cc1`, the GI50 is 41 µM (inactive) in the assay with K562; 80.2 µM (inactive) with EKVX; > 100 µM (inactive) in the assay on TK-10; 12.9 µM (inactive) with HL-60; > 100 µM (inactive) in the assay on UACC-62; 45.4 µM (inactive) in the assay with CCRF-CEM. Further, the GI50 in the assay on HOP-62 is > 100 µM (inactive); in the assay with SW-620, > 100 µM (inactive); in the assay on SF-539, 88.3 µM (inactive); in the assay with M14, > 100 µM (inactive); with SK-OV-3 it was > 100 µM (inactive).
On to `c1ccc(OCCSCCCCCCCCCCSCCOc2ccccc2)cc1`, for which the GI50 in the assay on K562 was > 100 µM (inactive); in the assay with EKVX it was 16.9 µM (inactive); in the assay with TK-10, 16.9 µM (inactive); with HL-60, > 100 µM (inactive); with RPMI-8226, > 100 µM (inactive); in the assay with UACC-62, > 100 µM (inactive). Moreover, the GI50 is > 100 µM (inactive) in the assay with CCRF-CEM; 24.7 µM (inactive) with HOP-62; > 100 µM (inactive) with RXF 393; 54.2 µM (inactive) in the assay on SW-620; > 100 µM (inactive) in the assay with SK-MEL-2; > 100 µM (inactive) in the assay on NCI-H226. In addition, the GI50 with OVCAR-5, with SF-539, with M14 and with SK-OV-3 was > 100 µM (inactive) throughout.
For the compound `CC12CCC(C)(c3cc(O)c(O)cc31)c1cc(O)c(O)cc12`, the GI50 was 7.06 µM (inactive) with K562; 25.1 µM (inactive) in the assay on EKVX; 19.8 µM (inactive) in the assay on TK-10; 3.38 µM (inactive) in the assay on HL-60; 8.51 µM (inactive) in the assay with RPMI-8226; 17.3 µM (inactive) in the assay with UACC-62. The GI50 in the assay with CCRF-CEM is 2.92 µM (inactive); in the assay on HOP-62, 26.7 µM (inactive); with RXF 393, 16.1 µM (inactive); in the assay on SW-620, 15.7 µM (inactive); with SK-MEL-2 it was 32.6 µM (inactive); with OVCAR-5, 22.3 µM (inactive). Further, the values for the GI50 in the assay with M14 and in the assay on SK-OV-3 were 17.2 µM (inactive) and 19.2 µM (inactive), respectively.
Take `COc1cc2c(c(OC)c1OC)-c1ccc(SC)c(=O)cc1[C@@H](NC(=O)c1ccc(F)cc1)CC2`: the GI50 is 0.0284 µM (active) with K562; 0.0461 µM (active) in the assay with EKVX; 0.0515 µM (active) in the assay on TK-10; < 0.01 µM (active) with HL-60; 0.0498 µM (active) in the assay with RPMI-8226; 0.0454 µM (active) in the assay with UACC-62. Also, the GI50 in the assay with CCRF-CEM is < 0.01 µM (active); with HOP-62, 0.0621 µM (active); with SW-620 it was 0.0306 µM (active); with SK-MEL-2, 0.0407 µM (active); in the assay on NCI-H226, 0.0381 µM (active); with OVCAR-5, 48.1 µM (inactive). Also, the GI50 in the assay on SF-539 is 0.0283 µM (active); in the assay with M14, 0.0378 µM (active); with SK-OV-3 it was 0.0294 µM (active).
